The test system of the assay is MDA-MB-435S xenograft. The experiment in a line: MDA-MB-435S xenograft, multiple dose regimen. Particulars: for tumor free mice: multiple intravenous injections. The class given is in vivo, Nu/Nu mice. As to the method:
In order to determine the minimal effective dose necessary to reduce MDA-MB-435S xenograft weights in a multiple dose regimen, Nu/Nu female mice, outbred strain, age 8 weeks (Charles River), were injected (s.c.) into the interscapular region with a MDA-MB-435S (passage # 253)/Matrigel suspension (2×10^6 cells/mouse) as previously described above. Phor 18-LHRH (338613) (ID: 338613 lot #P080401) (0.002, and 0.2 mg/kg) were reconstituted in USP saline prior to dosing. The doses were given as a single bolus intravenous injection via lateral tail vein on days 15, 16, 17, 20, 21, 22, 23, 27, 28, 29, 30, 33, 34, 35, 36, 37, 38, 40, 41, 42 after tumor cell inoculation. Saline injections served as control groups.
Each treatment group consisted of 16 mice. During the entire study tumor volumes were recorded twice weekly. Final necropsy was conducted on day 45 after tumor cell injection. […] due to occlusion of the tail vein in most mice. At study endpoint body weight, tumor weights were determined and fixed in phosphate buffered 10% formalin.

Turning to “KFAKFAKKFAKFAKKFAKQHWSYGLRPG [Phor18-LHRH]”, the tumor free mice reads like this: (0.002 mg/kg) 6/23; (0.2 mg/kg) 1/20. Also, where the note is “0.002 and 0.2 mg/kg, multiple injection regimen”, the “histological examination of H&E stained tumors” value is “eradication of tumor cells”.
